Source: patent US11213514B2, “Alpha-1-adrenergic receptor agonist therapy” (The Regents of the University of California, priority 2016, dated 2022)
Where “and” joins values, the source holds several entries; their conditions need not be identical. Equal entries are not always repeated.

Tests used:
wild type (WT) mice = test: Doxorubicin cardiotoxicity in wild type mice (survival, anatomy, conscious echocardiography, fibrosis)
Text: (§1) FIGS. 2A-2B. […] On Day 7 the mice underwent echocardiography prior to sacrifice. FIG. 2A. Fractional shortening, a measure of contractile function, with representative M-mode echocardiogram images. […] FIG. 2B. Heart sections from some of these mice (i.e. wild type mice) stained with Masson Trichrome. Fibrosis (weighted average collagen content) was quantified using Aperio ImageScope software.
(§2) On Day 7, mice underwent echocardiography and were sacrificed by cervical dislocation after an overdose of isoflurane.
(§3) Conscious transthoracic echocardiography was performed on loosely restrained mice in the McAllister Heart Institute Animal Models Core using a VisualSonics Vevo 2100 ultrasound system (VisualSonics, Inc., Toronto, Ontario, Canada). Two-dimensional and M-mode echocardiography were performed in the parasternal long-axis view at the level of the papillary muscle. Left ventricular systolic function was assessed by fractional shortening (% FS=[(LVEDD−LVESD)/LVEDD]×100). Reported values represent the average of at least five cardiac cycles per mouse. Sonographers and investigators were blinded to mouse treatment condition during image acquisition and analysis.
Mice were heparinized and the heart was perfused with 10 mL PBS followed by 20 mL of 4% PFA/PBS through a 23 G butterfly needle, excised and placed in 4% PFA/PBS for 24 hours then transferred to 70% EtOH. Hearts were stained using standard methods in the UNC Histology Research Core. Fibrosis was analyzed in 3 Masson Trichrome (MT)-stained sections of 4 or 5 hearts from each treatment group. Slides were scanned using an Aperio ScanScope (Aperio Technologies, Vista, Calif.) and analyzed in Aperio ImageScope software. The Algorithm Positive Pixel Count v9 was used to measure collagen staining by MT using hue value (0.66) and hue width (0.1) The N positive/N total value was used to determine a weighted average collagen content (%) for each section.

[1] = test system: mice lacking the α1A-AR (AKO); test: Doxorubicin cardiotoxicity in mice lacking the α1A-AR (survival, anatomy, conscious echocardiography)
Text: as §1
C57Bl6J mice were from Jackson Laboratory or from our breeding colony. α1A-AR knockout (AKO) mice from Paul C. Simpson were congenic on a C57Bl6J background for at least 10 generations and produced by heterozygous breeding in our animal facility. 8-12 week old males were used in all experiments. Female Sprague-Dawley rats with newborn litters were from Charles River. Animal care and experimental protocols were approved by the UNC IACUC and complied with Guide for the Care and the use of Laboratory Animals (National Research Council Committee for the Update of the Guide for the Care and Use of Laboratory Animals, 2011).
as §2, §3

[2] = test system: TBARS (lipid peroxidation) in mouse myocardium; test: Thiobarbituric acid reactive substances (TBARS) in mouse heart tissue; format: in vivo
Text: FIGS. 3A-3E. […] FIG. 3A. […] FIG. 3B. […] FIG. 3C. […] FIG. 3E.
(FIG. 3B). […] (FIG. 3C).

[3] = test system: neonatal rat ventricular myocytes (NRVMs); test: Mitochondrial membrane potential (JC-1) in NRVMs; format: cell-based
Protocol: (§4) FIG. 6A-6C. […] FIG. 6A. Mitochondrial membrane potential was assessed using JC-1 and fluorescent intensity was quantified using a plate reader. Red indicates intact mitochondrial membrane potential; green indicates compromised mitochondrial membrane potential (relative). Lysates were blotted for selected regulators of apoptosis and mitochondrial cell death effectors. Representative Western blots and summary findings from 3 independent experiments with at least 2 wells per condition in each experiment are shown.
JC-1 exists as a green fluorescent monomer at low mitochondrial membrane potential and a red fluorescent aggregate at high mitochondrial membrane potential. […] (FIGS. 6A-6C).
Mitochondrial membrane potential: Mitochondrial membrane potential in NRVMs was determined by 5, 5′, 6, 6′-tetrachloro-1, 1′, 3, 3′-tetraethylbenzimidazolylcarbocyanine iodide (JC-1) reduction. Cells were stained with JC-1 (Mitoprobe, Cayman Chemical Company) according to the manufacturer's protocol. In brief, serum-starved NRVMs were treated with DOX or vehicle in the presence or absence of dabuzalgron. […] Cells were washed once with medium then analyzed by plate reader (CLARIOstar, BMG LABTECH, Germany). JC-1 green fluorescence was excited at 488 nm and emission was detected using a 530±40 nm filter. JC-1 red fluorescence was excited at 488 nm and emission was detected using a 613±20 nm filter.

[4] = test system: cytochrome c, caspases, PARP; test: Immunoblot for cytochrome c and downstream effectors of apoptosis in NRVMs; format: cell-based, rat; details: NRVM lysates, 4 hours
Protocol: as §4, with “effectors.” for “effectors. Representative Western blots and summary findings from 3 independent experiments with at least 2 wells per condition in each experiment are shown.”
Homogenized tissue or cells were lysed in RIPA buffer with protease and phosphatase inhibitor (as above) and the lysate was passed through a Qiashredder. Equal protein abundance was assured with the Bradford assay (tissue lysates) or equal cell number (NRVMs). Samples were run for 2 hours at 140 v on ice on a Novex NuPAGE 4-12% Bis-Tris gel then transferred to a PVDF membrane at 90V for 1 hour on ice. Membranes were blocked in 5% milk at room temperature for 1 hour. We used Cell Signaling kit #9100 (pERK Thr202/Tyr204 1:250, ERK 1:1000, anti-rabbit HRP 1:1000). BID: (Santa Cruz, SC-11423); Cytochrome C: (Santa Cruz, SC-13560); AIF: (Santa Cruz, SC-13116); Caspase 8: (MBL international corporation, JM-3020-100); PARP: (Cell Signaling, #9532); Caspase 3: (Cell Signaling, #9665); Cleaved caspase 3: (Cell Signaling, #9664)

[5] = WT mice, dabuzalgron after DOX, Day 7
[6] = wild type mice, Dox 20 mg/kg i.p. + dabuzalgron 20 μg/kg/d gavage 7 days
[7] = wild type mice, Dox + 1240 20 μg/kg/d, Day 7 echocardiography
[8] = α1A-KO mice, Dox 20 mg/kg i.p. + dabuzalgron 20 μg/kg/d gavage 7 days
[9] = α1A-KO mice, Dox + 1240 20 μg/kg/d, Day 7 echocardiography

COc1cccc2c1C(=O)c1c(O)c3c(c(O)c1C2=O)C[C@@](O)(C(=O)CO)C[C@@H]3O[C@H]1C[C@H](N)[C@H](O)[C@H](C)O1 [DOX, doxorubicin]
burden of fibrosis, Masson Trichrome (wild type (WT) mice; mouse, in vivo): increased significantly | contractile function, conscious echocardiography (wild type (WT) mice; mouse, in vivo): decrease | 7-day survival (wild type (WT) mice; wild type mice, Dox 20 mg/kg i.p. + vehicle gavage 7 days): 78% | 7-day survival (wild type (WT) mice; wild type mice, Dox 20 mg/kg i.p. + vehicle gavage 7 days, listed as Dox): 78% | fractional shortening, DOX-treated AKO vs DOX-treated WT mice ([1]; mouse, in vivo): significantly lower | 7-day survival ([1]; α1A-KO mice, Dox 20 mg/kg i.p. + vehicle gavage 7 days): 38% and 50% | 7-day survival ([1]; α1A-KO mice, Dox 20 mg/kg i.p. + vehicle gavage 7 days, listed as Dox): 38% | TBARS abundance ([2]; hearts of mice treated with DOX): more abundant | mitochondrial membrane potential (JC-1) ([3]; DOX for 4 hours): profound loss | cleavage of caspases and PARP ([4]; doxorubicin 2 μM): caused cleavage | cytochrome c release ([4]; doxorubicin 2 μM): increased

Cc1c(OCC2=NCCN2)ccc(Cl)c1NS(C)(=O)=O [dabuzalgron, N-[6-chloro-3-(4,5-dihydro-1H-imidazol-2-ylmethoxy)-2-methylphenyl]methanesulfonamide]
effect of dabuzalgron on DOX-induced decrease in survival (wild type (WT) mice; DOX 20 mg/kg i.p., dabuzalgron 10 μg/kg twice daily 7 days): not fully mitigated | effect on DOX-induced decrease in contractile function (wild type (WT) mice; WT mice, Day 7, dabuzalgron after DOX): prevented | fractional shortening after DOX (wild type (WT) mice; [5]): preserved | left ventricular end systolic volume after DOX (wild type (WT) mice; [5]): preserved | effect on DOX-induced increase in fibrosis (wild type (WT) mice; WT mouse heart sections, dabuzalgron after DOX): mitigated | echocardiographic parameters (wild type (WT) mice; mouse, in vivo): no effect | 7-day survival (wild type (WT) mice; [6]): 86% | Body Wt Day 7 (wild type (WT) mice; [6]): 24.3 ± 0.6 g | HW/BW (wild type (WT) mice; [6]): 0.41 ± 0.02 % | HW/TL (wild type (WT) mice; [6]): 5.5 ± 0.3 mg/mm | Heart Wt (wild type (WT) mice; [6]): 97 ± 5 mg | Lung Wt/TL (wild type (WT) mice; [6]): 7.7 ± 0.4 mg/mm | FS (Fractional Shortening) (wild type (WT) mice; [7]): 53 ± 1 % | HR (Heart Rate) (wild type (WT) mice; [7]): 667 ± 10 beats per minute | LVs vol (Left Ventricular systolic volume) (wild type (WT) mice; [7]): 5 µL | PWd (Posterior Wall, diastole) (wild type (WT) mice; [7]): 0.9 mm | effect on reduction in contractile function after DOX ([1]; AKO mice): not rescued | effect of dabuzalgron on survival after DOX ([1]; AKO mice, DOX 20 mg/kg i.p., dabuzalgron 10 μg/kg twice daily 7 days): unaffected | 7-day survival [1, 8]: 50% | Body Wt Day 7 [1, 8]: 26.4 ± 1.2 g | HW/BW [1, 8]: 0.39 ± 0.01 % | HW/TL [1, 8]: 5.6 ± 0.2 mg/mm | Heart Wt [1, 8]: 101 ± 5 mg | Lung Wt/TL [1, 8]: 5.1 ± 0.2 mg/mm | FS (Fractional Shortening) [1, 9]: 42 ± 2% | HR (Heart Rate) [1, 9]: 618 ± 19 beats per minute | TBARS content ([2]; co-administration of dabuzalgron with DOX): normalized | effect on DOX-induced loss of mitochondrial membrane potential ([3]; DOX for 4 hours with dabuzalgron 10 μM): partially rescued | effect on DOX-induced cytochrome c release and cleavage of caspases and PARP ([4]; doxorubicin 2 μM with Dabuzalgron 10 μM): abrogated
